Measurements reported in patent publication US4146536A, “Nocardicin E and F, and process for production thereof” (Fujisawa Pharmaceutical Co., Ltd., priority 1975, dated 1979).
Converted amounts (≈) assume the structure as drawn.

Legend:
[1] = tested on: Escherichia coli NIHJ JC-2; experiment: Minimum Inhibitory Concentration (M.I.C.), serial agar dilution; assay type: cell-based; conditions: NIHJJC2, Mueller Hinton agar, inoculum 10^6 cells/ml, 37° C., 20 hours
Protocol: (§1) Minimum Inhibitory Concentration (M.I.C.)
(§2) M.I.C. test was conducted by a usual serial agar dilution method, using Mueller Hinton agar (Inoculum: 10^6 cells/ml) which was incubated at 37° C. for 20 hours. M.I.C. value is expressed as the minimum concentration of the Nocardicin E or F (mcg/ml) which inhibits growth of the microorganism.

[2] = tested on: Staphylococcus aureus 209P; experiment: as above; assay type: cell-based; conditions: Mueller Hinton agar, inoculum 10^6 cells/ml, 37° C., 20 hours
Protocol: as §1, §2

[3] = tested on: Pseudomonas aeruginosa NCTC10490; experiment: as above; assay type: cell-based; conditions: Mueller Hinton agar, inoculum 10^6 cells/ml, 37° C., 20 hours
Protocol: as §1, §2

[4] = tested on: Bacillus subtilis ATCC6633; experiment: as above; assay type: cell-based; conditions: Mueller Hinton agar, inoculum 10^6 cells/ml, 37° C., 20 hours
Protocol: as §1, §2

[5] = Solubility; assay type: physicochemical
[6] = aqueous alkaline solution (Nocardicin E: e.g. aqueous ammonia, aqueous sodium hydroxide solution)

MIC [1] | MIC [2] | MIC [3] | MIC [4] | Solubility ([5]; C2 H5 OH) | Solubility ([5]; CH3 COCH3) | Solubility ([5]; CH3 COOC2 H5) | Solubility ([5]; CH3 OH) | Solubility ([5]; CHCl3) | Solubility [5, 6] | Solubility ([5]; dimethylsulfoxide) | Solubility ([5]; pyridine) | Structure (SMILES)
> 400 µg/mL | > 400 µg/mL | 12.5 µg/mL (≈ 31.3 µM) | > 400 µg/mL | Sparingly soluble | Insoluble | Insoluble | Sparingly soluble | Insoluble | Highly soluble | Highly soluble | Highly soluble | O=C(NC1CN(C(C(=O)O)c2ccc(O)cc2)C1=O)/C(=N\O)c1ccc(O)cc1 (stereo not drawn) [Nocardicin E]
> 400 µg/mL | > 400 µg/mL | 100 µg/mL (≈ 250 µM) | > 400 µg/mL | Sparing soluble | Insoluble | Insoluble | Sparing soluble | Insoluble | Highly soluble | Highly soluble | Highly soluble | O=C(NC1CN(C(C(=O)O)c2ccc(O)cc2)C1=O)/C(=N/O)c1ccc(O)cc1 (stereo not drawn) [Nocardicin F]
